IC50 data for 28 molecules are collected here from the supplement of paper PMC7695840.

Where a name gives a salt, the structure may show the parent alone.

The subject of assay [1] is Staphylococcus aureus MW2 (mecA+). Nature of the assay: IC50 (growth, competition assay). The settings on record: cefoxitin: subinhibitory. In a few lines:
(§1)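 Two fluorescent S. aureus MW2 strains, one carrying and one lacking the resistance gene, were pre-induced, mixed 1:1 and grown unshaken in LB in 1536-well plates for 20 h at 37 °C and 90% humidity with a subinhibitory drug dose set each day. Compounds were tested on five- or nine-point 2-fold gradients in two dye-swapped replicates. DsRed (540/590) and GFP (485/520) signals were scaled per plate between the medians of single-strain controls, and No Treatment was then set to 0.5. For each strain, IC50 was taken as the dose that halved the No Treatment signal, or else the maximal signal.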

Assay [2] has as its system Staphylococcus aureus MW2 delta-mecA (mecA-). The assay is described as follows: IC50 (growth, competition assay). The settings on record: cefoxitin: subinhibitory. In a few lines:
as §1

What is called IC50 is the concentration that gives 50% inhibition. In the case of `CN(C)c1ccc(O)c2c1C[C@H]1C[C@H]3[C@H](N(C)C)C(O)=C(C(N)=O)C(=O)[C@@]3(O)C(O)=C1C2=O` [Minocycline hydrochloride], the IC50 in assay [1] (fluorescent label: DsRed), in assay [1] (fluorescent label: GFP), in assay [2] (fluorescent label: DsRed) and in assay [2] (fluorescent label: GFP) was < 9.85 µM each time.
As for `O=C(Nc1ncc(SCCN2CCCC2)s1)[C@]1(c2ccc(S(=O)(=O)C3CC3)cc2)C[C@H]1C1CCCCC1`, the half-inhibitory concentration (IC50) is 111 µM in assay [1] (fluorescent label: DsRed), > 150 µM in assay [1] (fluorescent label: GFP), 74.5 µM in assay [2] (fluorescent label: DsRed) and 34.4 µM in assay [2] (fluorescent label: GFP).
On to `CN1CCN(CCCN2c3ccccc3Sc3ccc(C(F)(F)F)cc32)CC1` [Trifluoperazine 2HCl], for which the IC50 amounted to 56.9 µM in assay [1] (fluorescent label: DsRed), 57.1 µM in assay [1] (fluorescent label: GFP), 16.5 µM in assay [2] (fluorescent label: DsRed) and 14.5 µM in assay [2] (fluorescent label: GFP).
Take `CC[C@H](C)C(=O)O[C@H]1C[C@H](O)C=C2C=C[C@H](C)[C@H](CC[C@@H](O)C[C@@H](O)CC(=O)O)[C@H]21` [Pravastatin sodium]: the IC50 in assay [1] (fluorescent label: DsRed) is 28.8 µM; in assay [1] (fluorescent label: GFP) it was 27.8 µM; in assay [2] (fluorescent label: DsRed) it was < 9.85 µM; in assay [2] (fluorescent label: GFP) it was < 9.85 µM.
`CNCCCC12CCC(c3ccccc31)c1ccccc12` [LUDIOLMIL]: the IC50 in assay [1] (fluorescent label: DsRed) was > 150 µM; in assay [1] (fluorescent label: GFP), 134 µM; in assay [2] (fluorescent label: DsRed) it was 31.2 µM; in assay [2] (fluorescent label: GFP) it was 48.5 µM.
Regarding `CC(C)(C)c1nc(-c2cccc(NS(=O)(=O)c3c(F)cccc3F)c2F)c(-c2ccnc(N)n2)s1`, the IC50 in assay [1] (fluorescent label: DsRed) is 35 µM; in assay [1] (fluorescent label: GFP), 79.2 µM; in assay [2] (fluorescent label: DsRed) it was < 9.85 µM; in assay [2] (fluorescent label: GFP) it was < 9.85 µM.
On to `O=C(O)c1ccc2cc(-c3ccc(O)c(C45CC6CC(CC(C6)C4)C5)c3)ccc2c1` [CD 437], for which the IC50 in assay [1] (fluorescent label: DsRed), in assay [1] (fluorescent label: GFP), in assay [2] (fluorescent label: DsRed) and in assay [2] (fluorescent label: GFP) was < 9.85 µM throughout.
For `CC[C@H]1OC(=O)[C@H](C)[C@@H](O[C@H]2C[C@@](C)(OC)[C@@H](O)[C@H](C)O2)[C@H](C)[C@@H](O[C@@H]2O[C@H](C)C[C@H](N(C)C)[C@H]2O)[C@](C)(OC)C[C@@H](C)C(=O)[C@H](C)[C@@H](O)[C@]1(C)O` [BIAXIN], the IC50 in assay [1] (fluorescent label: DsRed), in assay [1] (fluorescent label: GFP), in assay [2] (fluorescent label: DsRed) and in assay [2] (fluorescent label: GFP) was < 9.85 µM each time.
As to `N#Cc1cc([N+](=O)[O-])c2sc(C(N)=O)[n+]([O-])c2c1` [BTO-1], the IC50 in assay [1] (fluorescent label: DsRed) was 19.5 µM; in assay [1] (fluorescent label: GFP) it was 18.9 µM; in assay [2] (fluorescent label: DsRed), < 9.85 µM; in assay [2] (fluorescent label: GFP) it was < 9.85 µM.
On to `CCOC(=O)[C@H](CCc1ccccc1)N[C@@H](C)C(=O)N1Cc2ccccc2C[C@H]1C(=O)O` [ACCUPRIL], for which the concentration for half-maximal inhibition (IC50) in assay [1] (fluorescent label: DsRed), in assay [1] (fluorescent label: GFP), in assay [2] (fluorescent label: DsRed) and in assay [2] (fluorescent label: GFP) was > 150 µM in each case.
With `c1ccc2c(CCNc3ccc(Nc4ccncc4)cc3)c[nH]c2c1`, the IC50 turned out to be 104 µM in assay [1] (fluorescent label: DsRed), 138 µM in assay [1] (fluorescent label: GFP), 61 µM in assay [2] (fluorescent label: DsRed) and 37.1 µM in assay [2] (fluorescent label: GFP).
With `[O-][n+]1ccccc1[S-].[O-][n+]1ccccc1[S-].[Zn+2]` [Zinc Pyrithione], the IC50 in assay [1] (fluorescent label: DsRed), in assay [1] (fluorescent label: GFP), in assay [2] (fluorescent label: DsRed) and in assay [2] (fluorescent label: GFP) was < 9.85 µM each time.
Turning to `O=C1C(Cl)=C(Cl)C(=O)C(Cl)=C1Cl` [CHLORANIL], the IC50 in assay [1] (fluorescent label: DsRed) was found to be 67.1 µM; in assay [1] (fluorescent label: GFP), 83.8 µM; in assay [2] (fluorescent label: DsRed), 16 µM; in assay [2] (fluorescent label: GFP), 17.3 µM.
For `C=C1C(=O)[C@]23[C@H](CC[C@@H]1[C@@H]2O)[C@]12CO[C@@]3(O)[C@H](O)[C@H]1C(C)(C)CC[C@@H]2O` [RUBESCENSIN A], the IC50 stood at 36.3 µM in assay [1] (fluorescent label: DsRed), 84.5 µM in assay [1] (fluorescent label: GFP), 17.9 µM in assay [2] (fluorescent label: DsRed) and 17.2 µM in assay [2] (fluorescent label: GFP).
Turning to `CC(=O)NC[C@H]1CN(c2ccc(N3CCOCC3)c(F)c2)C(=O)O1` [Linezolid], the IC50 in assay [1] (fluorescent label: DsRed), in assay [1] (fluorescent label: GFP), in assay [2] (fluorescent label: DsRed) and in assay [2] (fluorescent label: GFP) was < 9.85 µM in each case.
On to `CC1=C(O)C(=O)C=C2C1=CC=C1[C@@]2(C)CC[C@@]2(C)[C@@H]3C[C@](C)(C(=O)O)CC[C@]3(C)CC[C@]12C` [CELASTROL], for which the IC50 in assay [1] (fluorescent label: DsRed), in assay [1] (fluorescent label: GFP), in assay [2] (fluorescent label: DsRed) and in assay [2] (fluorescent label: GFP) was < 9.85 µM throughout.
Consider `CNc1ccc2oc(C[C@H]3O[C@@]4(CC[C@H]3C)O[C@H]([C@H](C)C(=O)c3ccc[nH]3)[C@H](C)C[C@H]4C)nc2c1C(=O)O` [Calcimycin], for which the IC50 in assay [1] (fluorescent label: DsRed), in assay [1] (fluorescent label: GFP), in assay [2] (fluorescent label: DsRed) and in assay [2] (fluorescent label: GFP) was < 9.85 µM throughout.
With `O=C(CCCCCN1CCN(c2ccccc2-c2ccccc2)CC1)NC1CCCc2ccccc21` (configuration not stated) [LP 12 hydrochloride hydrate], the IC50 in assay [1] (fluorescent label: DsRed) was 17.2 µM; in assay [1] (fluorescent label: GFP), 23.3 µM; in assay [2] (fluorescent label: DsRed) it was < 9.85 µM; in assay [2] (fluorescent label: GFP), < 9.85 µM.
`Oc1ccc2ccccc2c1SSc1c(O)ccc2ccccc12` [IPA-3]: the IC50 in assay [1] (fluorescent label: DsRed), in assay [1] (fluorescent label: GFP), in assay [2] (fluorescent label: DsRed) and in assay [2] (fluorescent label: GFP) was < 9.85 µM throughout.
Consider `CC(C)c1c(O)ccc2c1CC[C@H]1[C@@](C)(CO)CCC[C@]21C` [19-HYDROXYTOTAROL], for which the concentration for half-maximal inhibition (IC50) in assay [1] (fluorescent label: DsRed) is 77.4 µM; in assay [1] (fluorescent label: GFP), 111 µM; in assay [2] (fluorescent label: DsRed), 107 µM; in assay [2] (fluorescent label: GFP), 65.8 µM.
With `CCN1CCN(C(=O)N[C@@H](C(=O)N[C@@H]2C(=O)N3C(C(=O)O)=C(CSc4nnnn4C)CS[C@H]23)c2ccc(O)cc2)C(=O)C1=O` [Cefoperazone (Cefobid)], the IC50 in assay [1] (fluorescent label: DsRed) is 4.66 µM; in assay [1] (fluorescent label: GFP) it was 6.86 µM; in assay [2] (fluorescent label: DsRed) it was < 0.498 µM; in assay [2] (fluorescent label: GFP), < 0.498 µM.
As to `O=c1[nH]c(=O)n([C@H]2C[C@H](O)[C@@H](CO)O2)cc1C(F)(F)F` [VIROPTIC], the IC50 was 59 µM in assay [1] (fluorescent label: DsRed), 108 µM in assay [1] (fluorescent label: GFP), < 9.85 µM in assay [2] (fluorescent label: DsRed) and < 9.85 µM in assay [2] (fluorescent label: GFP).
`O=S1(=O)N(CCN2CC=C(c3c[nH]c4cc(F)ccc34)CC2)c2cccc3c2N1CCC3` [LY-367,265]: the IC50 is 39 µM in assay [1] (fluorescent label: DsRed), 45 µM in assay [1] (fluorescent label: GFP), < 9.85 µM in assay [2] (fluorescent label: DsRed) and 13.1 µM in assay [2] (fluorescent label: GFP).
`CCn1cc(C(=O)O)c(=O)c2cc3c(cc21)OCO3` [UTIBID]: the IC50 in assay [1] (fluorescent label: DsRed) is 15.5 µM; in assay [1] (fluorescent label: GFP) it was 15 µM; in assay [2] (fluorescent label: DsRed), 15.2 µM; in assay [2] (fluorescent label: GFP) it was < 9.85 µM.
On to `NC(=O)c1cnccn1` [TEBRAZID], for which the IC50 is 26.7 µM in assay [1] (fluorescent label: DsRed), 35.6 µM in assay [1] (fluorescent label: GFP), 18.2 µM in assay [2] (fluorescent label: DsRed) and 20.3 µM in assay [2] (fluorescent label: GFP).
`Cc1nc2ccccc2n1Cc1ccc(Cl)cc1` [CHLORMIDAZOLE]: the IC50 in assay [1] (fluorescent label: DsRed) was < 9.85 µM; in assay [1] (fluorescent label: GFP), 10.3 µM; in assay [2] (fluorescent label: DsRed), < 9.85 µM; in assay [2] (fluorescent label: GFP) it was < 9.85 µM.
As to `C[C@H]1O[C@@H](n2cc(F)c(=O)[nH]c2=O)[C@H](O)[C@@H]1O` [Doxifluridine], the IC50 was 3.93 µM in assay [1] (fluorescent label: DsRed), 11.1 µM in assay [1] (fluorescent label: GFP), 0.661 µM in assay [2] (fluorescent label: DsRed) and < 0.498 µM in assay [2] (fluorescent label: GFP).
Regarding `N=C(N)c1ccc(OCCCCCOc2ccc(C(=N)N)cc2)cc1` [Pentamidine HCl], the concentration for half-maximal inhibition (IC50) in assay [1] (fluorescent label: DsRed) was 37.3 µM; in assay [1] (fluorescent label: GFP), 46.4 µM; in assay [2] (fluorescent label: DsRed) it was 23.5 µM; in assay [2] (fluorescent label: GFP) it was 16.8 µM.
